Structure (SMILES) | melting point [°C]
CC(CSc1ccc(F)cc1)C(=O)O (stereo not given) | 61 to 63
Cc1nsc2ncc(C(=O)O)cc12 | 179 to 181
COc1cc2nc(N3CCN(C(=O)C4COc5ccccc5O4)CC3)nc(N)c2cc1OC (stereo not given) | 279 to 281
NC(=O)C(Cl)c1ccc(Br)cc1F (stereo not given) | 101 to 103
CCOC(=O)C1=C(C)NC(C)=C(C(=O)O)C1c1cccc([N+](=O)[O-])c1 (stereo not given) | 199 to 201
O=C(O)c1occc1Br | 155 to 157
COc1ccccc1C1C(C(=O)O)CCC(=O)N1c1ccc(C)cc1 (stereo not given) | 205 to 208
Oc1cc2c(nn1)CCNC2 | 211 to 213
CC(=O)Nc1nc(C(=O)O)cs1 | 299 to 301
Cc1c(N)cccc1N1C(=O)CCC1=O | 182 to 184
O=c1c(Cl)c(Cl)cnn1-c1ccc(F)cc1F | 173 to 175
Cc1cc(C(=O)CCl)c(C)n1-c1cccc(S(=O)(=O)N2CCOCC2)c1 | 171 to 173
Nc1ccc2oc(C(F)(F)F)nc2c1 | 120 to 122
O=C(O)CSC(O)C(=O)c1ccccc1 (stereo not given) | 113 to 115
CC1=CSC(=C(C#N)N=O)N1 | 180 to 182
C=CCNC(=O)NC(=O)C(C)Cl (stereo not given) | 68 to 70
CC(=O)c1cc(C(=O)C(Cl)(Cl)Cl)n(C)c1 | 133 to 135
COc1ccc(S(=O)(=O)Cl)cc1[N+](=O)[O-] | 58 to 60
O/N=C/c1c(Cl)ncn1-c1ccccc1 | 179 to 181
O=C(O)c1cc(F)ccc1N1CCOCC1 | 158 to 160
OCc1ncc[nH]1 | 99 to 101
O=S(=O)(Cl)c1cccc(-n2cnnn2)c1 | 125 to 127
O=C(O)Cn1cc(Br)c(=O)[nH]c1=O | 266 to 268
c1ccc2c(c1)CNc1ccccc1-2 | 120 to 122

Structure (SMILES) | melting point [°C]
Nc1ccc2nc(Cc3ccccc3)oc2c1 | 104 to 106
Cc1ccc(Oc2ccc(NC(=O)CCl)cc2)cc1 | 155 to 158
Cc1ccc(CC(=O)c2ccc(C)cc2)cc1 | 100 to 102
COc1ccc(C(N)=NO)cn1 | 162 to 164
O=C(Nc1cocn1)OCC(F)(F)F | 131 to 133
Cc1ccnn1-c1ccccn1 | 34 to 36
CNC(=O)c1cc(Oc2ccccc2N)ccn1 | 115 to 117
CN1C(=O)CCC(C(N)=O)C1c1ccccc1 (stereo not given) | 222 to 224
c1ccc(COc2ccc3cn[nH]c3c2)cc1 | 166 to 168
COc1cc(C(=O)N2CCCC(C(=O)O)C2)cc(OC)c1OC (stereo not given) | 189 to 191
CCCC(NCCC(=O)Nc1cc(C)on1)C(=O)O (stereo not given) | 227 to 229
CCOC(=O)c1c(N)n(CCO)c2nc3ccccc3nc12 | 226 to 228
O=C(CCl)NCCc1cccc2ccccc12 | 104 to 106
COc1cccc(-c2noc(Cl)n2)c1 | 56 to 58
Cc1ccc(-c2nn(Cc3ccccc3)cc2C(=O)O)cc1 | 157 to 159
Cc1nn(-c2ccc(C(=O)O)cc2)c(C)c1Br | 229 to 231
CN(C)S(=O)(=O)c1ccc(NC(=O)CCCl)cc1 | 159 to 161
Nc1cccc(C(=O)Nc2cccc(C(F)(F)F)c2)c1 | 114 to 115
O=C(Nc1cccc(CO)c1)c1ccccc1 | 114 to 116
CC(C)c1ccsc1C(=O)O | 97 to 99
N#Cc1c(F)c(N)c(F)c(F)c1C#N | 159 to 161
CC(Cl)C(=O)Nc1cccc(S(=O)(=O)N2CCCCC2)c1 (stereo not given) | 163 to 165
O=C(O)CCCCNC(=O)c1ccc2[nH]nnc2c1 | 189 to 191
O=C(O)Cc1ccc2c(c1)CCC2 | 86 to 90

Structure (SMILES) | melting point [°C]
NS(=O)(=O)C=Cc1cccc(Br)c1 | 153 to 155
Cc1cc(C(=O)CCl)c(C)n1-c1cc(Cl)cc(Cl)c1 | 113 to 115
Nc1nc2c(F)c(Cl)ccc2s1 | 80 to 82
O=C(O)C1CC1c1ccc(OC(F)F)cc1 (stereo not given) | 73 to 75
Nc1cccc(C(=O)N2CCC(O)CC2)c1 | 128 to 130
O=C(O)CN1C(=O)Cn2c(cc3ccccc32)C1=O | 331 to 333
O=C(O)Cc1csc(NC(=O)c2ccccc2F)n1 | 204 to 206
COC(=O)c1cc(N)cc(F)c1F | 89 to 91
CNC(=O)COc1cccc(CC(=O)O)c1 | 128 to 130
COc1cc(NC(C)=O)c(C(=O)O)cc1OC | 229 to 231
Cc1ccc(S(N)(=O)=O)c(C(=O)O)c1 | 271 to 273
Cc1nc(N2CCOCC2)sc1C=O | 166 to 168
Cc1ccc(C)c(NC(=O)CCl)c1 | 161 to 163
Cc1cccc(C)c1OCCO | 70 to 72
c1ccc(-c2nnc(-c3ccccc3)[nH]2)cc1 | 189 to 191
N#Cc1ccc(C=CC(=O)O)cc1 | 250 to 252
Cc1nc(CNC(=O)OC(C)(C)C)ccc1C(=O)O | 163 to 165
O=C(NNC(=O)C(Cl)Cl)c1ccccc1 | 184 to 186
O=C(O)CNCc1c(F)cccc1Cl | 184 to 186
N#Cc1cc(S(=O)(=O)Cl)ccc1Cl | 49 to 51
O=C(c1cc(Br)c[nH]1)C(Cl)(Cl)Cl | 125 to 127
Cc1cc(C(=O)O)cc(S(=O)(=O)Cl)c1C | 171 to 173
N#Cc1ccc2nc(Cl)ccc2c1 | 208 to 210
COc1ccc(C(=O)C(C)Br)cc1OC (stereo not given) | 83 to 85

Structure (SMILES) | melting point [°C]
CCCCNS(=O)(=O)c1ccc(N)c(N)c1 | 48 to 52
Cc1nc(CCC(=O)O)oc1-c1ccccc1 | 162 to 164
Nc1ccccc1SCC(O)c1ccccc1 (stereo not given) | 61 to 63
CC(=O)Cn1c(=O)oc(=O)c2ccccc21 | 151 to 153
CCN(CC)c1ccc([N+](=O)[O-])cc1C(=O)O | 184 to 186
Cn1c(O)c([N+](=O)[O-])c(=O)c2ccccc21 | 159 to 161
Nc1ccc(F)c(NS(=O)(=O)c2cccs2)c1 | 179 to 181
O=C(c1ccc(Cl)cc1Cl)N1CCNCC1 | 108 to 110
COc1cncc(CCC(=O)O)c1 | 102 to 104
O=C(CCl)c1c(-c2ccc(F)cc2)[nH]c2ccccc12 | 158 to 160
Sc1nnc(NC2CCCCC2)s1 | 144 to 146
CC(=O)Nc1ccsc1 | 146 to 148
CC(C)C(CN)C(=O)O (stereo not given) | 249 to 251
CC(C)n1cccc1C(=O)O | 106 to 108
Oc1ccnc2c(OC(F)(F)F)cccc12 | 145 to 147
NC(=NO)c1ccc(N2CCCCC2)cc1 | 169 to 171
O=C(O)c1cc(OCC(F)(F)F)cc(OCC(F)(F)F)c1 | 141 to 143
O=C(O)c1c[nH]c(=O)c(Br)c1 | 307 to 309
Cc1ccccc1C(=O)NC1CCN(C(=O)CCl)CC1 | 126 to 128
Cc1nnc(Sc2ccc(N)c(C)c2)s1 | 142 to 144
NC(C(=O)O)(c1cccc(F)c1)C(F)(F)F (stereo not given) | 131 to 133
COc1ccc(Cn2cc(C(=O)O)cn2)cc1 | 132 to 134
CC(C)n1nc(C(=O)O)c2ccccc2c1=O | 142 to 144
O=C(O)CSc1cccc(Br)c1 | 79 to 81

Structure (SMILES) | melting point [°C]
Nc1nnc(-c2ccc([N+](=O)[O-])o2)o1 | 259 to 261
CC(=O)c1ccc(N2CCC(O)CC2)cc1 | 127 to 129
O=S(=O)(O)C1CCCNC1 (stereo not given) | 304 to 306
CCOC(=O)c1nc2ccccc2c(=O)[nH]1 | 189 to 193
O=C(O)c1ccc(F)c(S(=O)(=O)Cc2ncon2)c1 | 169 to 171
NC(=S)NCCc1cccs1 | 127 to 129
CC(C)NS(=O)(=O)Cc1ccc(C#N)cc1 | 158 to 160
O=S(=O)(F)c1ccc2cn[nH]c2c1 | 219 to 221
CS(=O)(=O)CCn1cc(Br)cn1 | 94 to 96
O=C(O)C1CCN(S(=O)(=O)c2cc([N+](=O)[O-])ccc2Cl)CC1 | 42 to 44
OC(CC1CCCCCN1)c1cccs1 (stereo not given) | 60 to 62
BrCc1cccc2ccccc12 | 49 to 51
O=C(O)c1n[nH]c2ccccc2c1=O | 259 to 261
Cc1cnnc(N)n1 | 174 to 176
CCc1ccc(C(N)C(=O)O)cc1 (stereo not given) | 219 to 221
CCc1sc(C(=O)NNC(=O)CCl)cc1C | 160 to 162
Nc1cc(-c2ccc(I)cc2)no1 | 159 to 161
Nc1nnc(-c2ccc3ccccc3c2)o1 | 274 to 276
CC(C)N(C)S(=O)(=O)c1ccc(Cl)c(C(=O)O)c1 | 154 to 156
COc1ccc(Cl)cc1CO | 56 to 61
O=C(O)C1CSc2ccccc21 (stereo not given) | 95 to 97
O=C(O)c1cc(S(=O)(=O)N2CCOCC2)ccc1N1CCCCC1 | 179 to 181
Cc1sc2nc(-c3ccccn3)nc(Cl)c2c1-c1ccccc1 | 166 to 168
CCCC(C#N)NC(=O)c1ccccc1 (stereo not given) | 89 to 91

Structure (SMILES) | melting point [°C]
O=C1C=CC(=O)N1c1ccccc1Sc1ccc(Cl)cc1 | 54 to 56
O=S(=O)(Cl)c1c(Cl)cccc1C(F)(F)F | 36 to 38
Nc1ccc2nc[nH]c(=O)c2c1 | 309 to 311
C#CCN1CCC[C@H]1C(=O)O | 151 to 153
Cn1c(=O)oc(=O)c2cc([N+](=O)[O-])ccc21 | 180 to 182
O=C1CCc2cc(OCCO)ccc2N1 | 180 to 182
Nc1nc(-c2cccs2)cs1 | 136 to 138
CC(C)(C)c1nc(CC(=O)O)cs1 | 94 to 96
O=C1CC2(CCCC2)C(=O)O1 | 33 to 35
OC(CC1CCCCCN1)c1ccccc1 (stereo not given) | 36 to 38
O=C(O)CCSc1ccc2c(c1)OCCCO2 | 63 to 65
CC(C)(C)NS(=O)(=O)c1cc(N)ccc1F | 138 to 140
CNC(=O)C1CNCCO1 (stereo not given) | 93 to 95
CCOC(=O)C1CCN(C(=O)c2ccccc2)CC1 | 84 to 86
Cc1ccc(NC(=O)CCl)cc1Br | 180 to 181
CCOC(=O)c1c(N)sc2ccccc12 | 105 to 107
O=C(CCl)Nc1sc2c(c1C(=O)c1ccccc1)CCCC2 | 110 to 112
Nc1oncc1-c1ccccc1 | 97 to 99
Cc1nn(-c2ccccc2)c(C(F)(F)F)c1C(=O)O | 146 to 148
Nc1nc(-c2cc(F)ccc2F)cs1 | 145 to 147

— a melting point compilation (Tetko et al.)
